Results: patent publication US10689381B2 (priority 2017, dated 2020)
≈ marks a conversion by molar mass, not a printed value. Read-outs that look alike come from different tables or passages of the source.

Experiments:
[1] = system: HCT116/VM46; assay: cells; assay type: cell-based, human
Method: Compounds were tested for their cell growth inhibition of L1210 (ATCC no. CCL-219, mouse lymphocytic leukemia), HCT116 (ATCC no. CCL-247, human colorectal carcinoma), and HCT116/VM46 (a vinblastine-resistant strain of HCT116) cells in culture. A population of cells (>1×10^6 cells/mL as determined with a hemocytometer) was diluted with Dulbecco's Modified Eagle Medium (DMEM, Gibco) containing 10% fetal bovine serum (FBS, Gibco) to give a final concentration of 30,000 cells/mL. To each well of a 96-well plate (Corning® Costar®) was added 100 μL of the cell media solution with a multichannel pipet. The cultures were incubated at 37° C. in an atmosphere of 5% CO2 and 95% humidified air for 24 hours.
The test compounds were then added to the plate as follows: test compounds were diluted in DMSO to a concentration of 1 mM. 10-Fold serial dilutions in DMSO were next performed on a separate 96-well plate. Fresh culture media (100 μL) was added to each well of cells resulting in 200 μL of medium per well followed by 2 μL of each test agent. Compounds were tested in duplicate (n=2-8 times) at six concentrations between 0-1000 nM or 0-10000 nM. Following the addition of compound, cultures were incubated for an additional 72 hours.
The plates were incubated at 37° C. for 5 minutes (L1210) or 15 min (HCT116 and HCT116/VM46). After the given incubation time, 50 μL of 0.1 N NaOH was added to each well and the absorption at 405 nm was determined using a 96 well plate reader. […]

[2] = biological target: Pgp (Homo sapiens, UniProt P08183); assay: Drug-stimulated Pgp ATPase activity in membranes (MDR1 PREDEASY ATPase kit)
[3] = system: Tubulin
Method: Control studies were performed with BODIPY-VBL in the absence of a competitive ligand (control 1, maximum FI enhancement) and in the absence of tubulin (control 2, no FI enhancement). Percent (%) BODIPY-VBL displacement was calculated by the formula: (control 1 FI−experiment FI)/(Control 1 FI−Control 2 FI)×100%. Reported values are the average of 5 measurements±SD.

[4] = system: A549-T24; assay: cells; assay type: cell-based, human
From the text: (§1) 2001, 98:11737; Kavallaris et al., Brit. J. Cancer. 1999, 80:1020; and Kavallaris et al., J. Clin. Invest. 1997, 100:1282]. As a result, the comparison of cell growth inhibition of candidate drugs against A549 vs A549-T24 has been used to characterize potential resistance due to increased expression of class III β-tubulin [Goncalves et al., Proc. Natl. Acad. Sci. USA. 2001, 98:11737; Kavallaris et al., Brit. J. Cancer. 1999, 80:1020; and Kavallaris et al., J. Clin. Invest. 1997, 100:1282].

[5] = system: A549; assay: cells; assay type: cell-based, human; conditions: read-out: IC50 A549
From the text: as §1

[6] = system: L1210; assay: cells; assay type: cell-based, mouse
Procedure, shortened: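 Compound exposure ran 72 h at six concentrations (0–1000 nM or 0–10000 nM, duplicate) on cells plated at 30,000 cells/mL in 10% FBS DMEM. A closing 37 °C incubation took 15 min (HCT116) or 5 min (L1210).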

[7] = system: Caco-2 cells

Pgp, sequence (P08183 whole entry): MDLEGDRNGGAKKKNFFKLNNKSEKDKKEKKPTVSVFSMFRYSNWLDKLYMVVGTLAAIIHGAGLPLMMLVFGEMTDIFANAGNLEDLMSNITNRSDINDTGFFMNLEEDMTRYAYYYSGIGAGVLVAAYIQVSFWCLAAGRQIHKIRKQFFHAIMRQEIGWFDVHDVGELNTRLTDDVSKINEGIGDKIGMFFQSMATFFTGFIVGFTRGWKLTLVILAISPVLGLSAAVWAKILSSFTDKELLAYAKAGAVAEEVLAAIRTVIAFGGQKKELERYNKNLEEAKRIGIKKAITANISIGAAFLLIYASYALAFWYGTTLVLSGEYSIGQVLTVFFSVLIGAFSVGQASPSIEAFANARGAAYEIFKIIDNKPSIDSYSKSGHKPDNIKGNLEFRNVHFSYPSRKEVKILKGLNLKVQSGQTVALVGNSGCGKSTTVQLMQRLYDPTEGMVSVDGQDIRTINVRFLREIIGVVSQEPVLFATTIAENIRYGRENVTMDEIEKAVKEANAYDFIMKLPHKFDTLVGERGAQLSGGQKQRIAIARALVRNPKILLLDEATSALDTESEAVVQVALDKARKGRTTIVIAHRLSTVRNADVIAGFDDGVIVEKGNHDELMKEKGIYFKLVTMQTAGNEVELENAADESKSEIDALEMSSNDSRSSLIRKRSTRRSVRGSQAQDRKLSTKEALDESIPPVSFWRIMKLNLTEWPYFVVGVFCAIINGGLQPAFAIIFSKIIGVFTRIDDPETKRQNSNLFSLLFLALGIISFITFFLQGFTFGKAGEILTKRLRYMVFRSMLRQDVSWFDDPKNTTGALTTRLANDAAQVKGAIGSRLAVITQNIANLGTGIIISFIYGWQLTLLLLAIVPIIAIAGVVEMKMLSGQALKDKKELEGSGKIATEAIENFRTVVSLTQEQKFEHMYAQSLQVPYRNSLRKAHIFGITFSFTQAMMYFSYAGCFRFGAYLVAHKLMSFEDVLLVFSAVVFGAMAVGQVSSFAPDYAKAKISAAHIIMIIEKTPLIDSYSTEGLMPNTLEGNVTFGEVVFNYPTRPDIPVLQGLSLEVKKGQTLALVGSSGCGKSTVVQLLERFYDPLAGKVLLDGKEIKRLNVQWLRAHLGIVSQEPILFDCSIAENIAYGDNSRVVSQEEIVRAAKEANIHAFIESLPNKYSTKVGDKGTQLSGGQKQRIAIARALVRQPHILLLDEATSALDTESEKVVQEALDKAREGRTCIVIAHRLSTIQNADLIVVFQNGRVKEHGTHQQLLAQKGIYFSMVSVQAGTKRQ

Structure (SMILES): CC[C@]1(O)C[C@@H]2CN(CCc3c([nH]c4ccccc34)[C@@](C(=O)OC)(c3cc4c(cc3OC)N(C)[C@H]3[C@@](O)(C(=O)OC)[C@H](OC(C)=O)[C@]5(CC)C=CCN6CC[C@]43[C@@H]65)C2)C1 [Vinblastine (1), Vinblastine, reference compound]
- MIC, HCT116/VM46 cells [1]: 0.6 µM (≈ 0.487 µg/mL)
- differential in activity between sensitive and resistant HCT116 cell lines [1]: 88 fold
- IC50 ([1]; Table 1, read-out: IC50 HCT116/VM46): 600 nM
- IC50 ([1]; Table 2, read-out: IC50 HCT116/VM46): 600 nM
- IC50 ([1]; Table 3, read-out: IC50 HCT116/VM46): 600 nM
- IC50 ([1]; Table 4, read-out: IC50 HCT116/VM46): 600 nM
- IC50 ([1]; Table 5, read-out: IC50 HCT116/VM46): 600 nM
- IC50 ([1]; Table 6, read-out: IC50 HCT116/VM46): 600 nM
- IC50 ([1]; Table 7, C20′ sulfonamides, read-out: IC50 HCT116/VM46): 600 nM
- IC50 ([1]; Table 8, 10′-F compounds, read-out: IC50 HCT116/VM46): 600 nM
- IC50 ([1]; Table 10, read-out: IC50 (nM), HCT116/VM46): 600 nM
- IC50 ([1]; read-out: IC50 HCT116/VM46): 600 nM
- IC50 ([1]; table in Background, C20′ substituent X, read-out: IC50, HCT116/VM46): 600 nM
- % Pgp ATPase activity [2]: 87%
- percent (%) displacement of tubulin-bound BODIPY-vinblastine ([3]; FIG. 2, competitive ligand 18 μM): 50%
- % displacement ([3]; Table 9, displacement of tubulin bound BODIPY-vinblastine): 61 ± 13%
- IC50 [4]: 6.7 nM
- IC50 [5]: 7.7 nM
- IC50 [6]: 6 nM
- IC50 ([6]; Table 1): 6 nM
- IC50 ([6]; Table 2): 6 nM
- IC50 ([6]; Table 3): 6 nM
- IC50 ([6]; Table 4): 6 nM
- IC50 ([6]; Table 5): 6 nM
- IC50 ([6]; Table 6): 6 nM
- IC50 ([6]; Table 7, C20′ sulfonamides): 6 nM
- IC50 ([6]; Table 8, 10′-F compounds): 6 nM
- Papp, B to A [7]: 38.2 ± 2.0 x 10^−6 cm/s
